For the test, the system named is lung cancer cell line NCI-H82. Nature of the test: Cell proliferation assay, NCI-H82 (CELL-TITER GLO). In kind it is cell-based. The note with it: Homo sapiens, NCI-H82, 72 h, NCI-H82 cells, 72 h incubation, cell viability by CELL-TITER GLO, top concentration 1 μM; read-out: EC50, Inhibition of NCl-H82 Cell Proliferation. On the procedure:
The activity of a compound was determined in a cell proliferation assay using the lung cancer cell line NCI-H82. Cells (1,000 cells per well) were cultured with RPMI1640 in a 384-well tissue culture plate. After incubated overnight, the compound was added at predetermined concentrations, starting with 1 μM and followed by a 3-fold serial dilution. After the cells were incubated for 72 h, cell viability was determined using a CELL-TITER GLO assay. The CELL-TITER GLO reagent (25 μL) was added to each well and the luminescence was measured by a multimode microplate reader after a brief period of shaking. EC50 values were determined for the compound. The results are summarized in Table 1, wherein A represents a value no greater than 200 nM, B represents a value greater than 200 nM but no greater than 1 μM, C represents a value greater than 1 μM but no greater than […], and D represents a value greater than 5 μM.
Take `C#Cc1nc(NC(=O)N[C@@H](CO)c2ccc(-c3cc(F)cnc3C3(C#N)CC3)cc2)cs1` [Compound A64, (R)-1-(1-(4-(2-(1-Cyanocyclopropyl)-5-fluoropyridin-3-yl)phenyl)-2-hydroxy-ethyl)-3-(2-ethynylthiazol-4-yl)urea]: the EC50 was no more than 200 nM.

Consider `C#Cc1nc(NC(=O)N[C@@H](CO)c2ccc(N3CCCCCC3)cc2)cs1` [Compound A137, (R)-1-(1-(4-(Azepan-1-yl)phenyl)-2-hydroxyethyl)-3-(2-ethynylthiazol-4-yl)urea], for which the EC50 was no more than 200 nM.

In the case of `C#Cc1nc(NC(=O)N[C@@H](CO)C(=O)N2CCC(N3CC(F)(F)C3)CC2)cs1` [Compound A159, (S)-1-(1-(4-(3,3-Difluoroazetidin-1-yl)piperidin-1-yl)-3-hydroxy-1-oxopropan-2-yl)-3-(2-ethynylthiazol-4-yl)urea], the EC50 is greater than 5000 nM.

For `C#Cc1nc(NC(=O)N2CCN(c3ccc(-c4cccc5ncsc45)cc3)C[C@@H]2CO)cs1` [Compound B24, (R)-4-(4-(Benzo[d]thiazol-7-yl)phenyl)-N-(2-ethynylthiazol-4-yl)-2-(hydroxy-methyl)piperazine-1-carboxamide], the EC50 was no more than 200 nM.

`C#Cc1nc(NC(=O)N[C@@H](CC#N)c2ccc(-c3cccc4ncsc34)cc2)cs1` [Compound A196, (S)-1-(1-(4-(Benzo[d]thiazol-7-yl)phenyl)-2-cyanoethyl)-3-(2-ethynylthiazol-4-yl)urea]: the EC50 was no more than 200 nM.

Regarding `C#Cc1nc(NC(=O)N2CCN(c3ncc(-c4cccc5ncsc45)cc3C#N)C[C@@H]2CO)cs1` [Compound B59, (R)-4-(5-(Benzo[d]thiazol-7-yl)-3-cyanopyridin-2-yl)-N-(2-ethynylthiazol-4-yl)-2-(hydroxymethyl)piperazine-1-carboxamide], the EC50 was no more than 200 nM.

For `C#Cc1nc(NC(=O)N[C@@H](C(N)=O)c2ccc(-c3cccc(C4(C#N)CC4)c3)cc2)cs1` [Compound A212, (R)-2-(3′-(1-Cyanocyclopropyl)-[1,1′-biphenyl]-4-yl)-2-(3-(2-ethynylthiazol-4-yl)ureido)acetamide], the EC50 is no more than 200 nM.

Regarding `C#Cc1nc(NC(=O)N2CCN(c3ccc(-c4cccc(N5CCCC5)c4)cc3)C[C@H]2CO)cs1` [Compound B52, (S)—N-(2-Ethynylthiazol-4-yl)-2-(hydroxymethyl)-4-(3′-(pyrrolidin-1-yl)-[1,1′-biphenyl]-4-yl)piperazine-1-carboxamide], the EC50 is no more than 200 nM.

On to `C#Cc1nc(NC(=O)N[C@@H](CO)c2ccc(C3CCCCC3)cc2)cs1` [Compound A182, (R)-1-(1-(4-Cyclohexylphenyl)-2-hydroxyethyl)-3-(2-ethynylthiazol-4-yl)urea], for which the EC50 is no more than 200 nM.

As to `C#Cc1nc(NC(=O)N[C@@H](CO)c2ccc(-c3cccc(C4(O)CCC4)c3)cc2)cs1` [Compound A189, (R)-1-(2-Ethynylthiazol-4-yl)-3-(2-hydroxy-1-(3′-(1-hydroxycyclobutyl)-[1,1′-biphenyl]-4-yl)ethyl)urea], the EC50 is no more than 200 nM.

For `C#Cc1nc(NC(=O)NCC(=O)N2CC(c3ccccc3C#N)C2)cs1` [Compound A34, 1-(2-(3-(2-Cyanophenyl)azetidin-1-yl)-2-oxoethyl)-3-(2-ethynylthiazol-4-yl)urea], the EC50 is 200 to 1000 nM.

On to `C#Cc1nc(NC(=O)N[C@@H](C(=O)NC)c2ccc(-c3cccc4nc[nH]c(=O)c34)cc2)cs1` [Compound A213, (R)-2-(3-(2-Ethynylthiazol-4-yl)ureido)-N-methyl-2-(4-(4-oxo-3,4-dihydro-quinazolin-5-yl)phenyl)acetamide], for which the EC50 was no more than 200 nM.

In the case of `C#Cc1nc(NC(=O)N[C@@H](CO)C(=O)N2CCC3(CCC3)CC2)cs1` [Compound A153, (S)-1-(2-Ethynylthiazol-4-yl)-3-(3-hydroxy-1-oxo-1-(7-azaspiro[3.5]nonan-7-yl)propan-2-yl)urea], the EC50 was no more than 200 nM.

Turning to `C#Cc1nc(NC(=O)N[C@@H](CO)C(=O)N2CCC3(CCCC3)CC2)cs1` [Compound A154, (S)-1-(2-Ethynylthiazol-4-yl)-3-(3-hydroxy-1-oxo-1-(8-azaspiro[4.5]decan-8-yl)propan-2-yl)urea], the EC50 is no more than 200 nM.

As for `C#Cc1nc(NC(=O)N[C@@H](CO)c2ccc(-c3cccc4ncsc34)cn2)cs1` [Compound A114, (R)-1-(1-(5-(Benzo[d]thiazol-7-yl)pyridin-2-yl)-2-hydroxyethyl)-3-(2-ethynyl-thiazol-4-yl)urea], the EC50 was no more than 200 nM.

As for `C#Cc1nc(NC(=O)NCc2ccc(-c3cccc(C4(O)CC4)c3)cc2)cs1` [Compound A168, 1-(2-Ethynylthiazol-4-yl)-3-((3′-(1-hydroxycyclopropyl)-[1,1′-biphenyl]-4-yl)methyl)urea], the EC50 is no more than 200 nM.

As for `C#Cc1nc(NC(=O)N(CCC#N)Cc2ccc(-c3cccc4ncsc34)cc2)cs1` [Compound A205, 1-(4-(Benzo[d]thiazol-7-yl)benzyl)-1-(2-cyanoethyl)-3-(2-ethynylthiazol-4-yl)urea], the EC50 was no more than 200 nM.

`C#Cc1nc(NC(=O)NCc2ccc(N3CCC[C@@H]3C#N)cc2)cs1` [Compound A33, (R)-1-(4-(2-Cyanopyrrolidin-1-yl)benzyl)-3-(2-ethynylthiazol-4-yl)urea]: the EC50 is no more than 200 nM.

For the compound `C#Cc1nnc(NC(=O)N[C@@H](COC(N)=O)c2ccc(-c3cccc(N4CCCC4)n3)cn2)s1` [Compound A97, (R)-2-(3-(5-Ethynyl-1,3,4-thiadiazol-2-yl)ureido)-2-(6-(pyrrolidin-1-yl)-[2,3′-bipyridin]-6′-yl)ethyl carbamate], the EC50 was no more than 200 nM.

In the case of `C#Cc1nc(NC(=O)N[C@@H](CO)c2ccc(-c3ccccc3C3CC3(F)F)cn2)cs1` (stereo partly drawn) [Compound A80, 1-((1R)-1-(5-(2-(2,2-Difluorocyclopropyl)phenyl)pyridin-2-yl)-2-hydroxyethyl)-3-(2-ethynylthiazol-4-yl)urea], the EC50 was no more than 200 nM.

For the compound `C#Cc1nc(NC(=O)N[C@@H](COC(N)=O)c2ccc(-c3ccccc3C3(C#N)CC3)cc2)cs1` [Compound A55, (R)-2-(2′-(1-Cyanocyclopropyl)-[1,1′-biphenyl]-4-yl)-2-(3-(2-ethynylthiazol-4-yl)ureido)ethyl carbamate], the EC50 was no more than 200 nM.

For the compound `C#Cc1nc(NC(=O)N[C@@H](CS(N)(=O)=O)c2ccc(-c3cccc4ncsc34)cc2)cs1` [Compound A198, (R)-2-(4-(Benzo[d]thiazol-7-yl)phenyl)-2-(3-(2-ethynylthiazol-4-yl)ureido)-ethane-1-sulfonamide], the EC50 was no more than 200 nM.

Turning to `C#Cc1nc(NC(=O)N(C)[C@@H](COC(N)=O)c2ccc(-c3ccc(F)cc3C3CC3(F)F)cn2)cs1` (stereo partly drawn) [Compound A84, (2R)-2-(5-(2-(2,2-Difluorocyclopropyl)-4-fluorophenyl)pyridin-2-yl)-2-(3-(2-ethynylthiazol-4-yl)-1-methylureido)ethyl carbamate], the EC50 was no more than 200 nM.

On to `C#Cc1nc(NC(=O)N2CCN(c3ccc(-c4cccc5c4cnn5C)cc3)CC2)cs1` [Compound B18, N-(2-Ethynylthiazol-4-yl)-4-(4-(1-methyl-1H-indazol-4-yl)phenyl)piperazine-1-carboxamide], for which the EC50 was no more than 200 nM.

With `C#Cc1nc(NC(=O)N[C@@H](CO)c2ccc(-c3c(F)cccc3C3(C#N)CC3)cn2)cs1` [Compound A78, (R)-1-(1-(5-(2-(1-Cyanocyclopropyl)-6-fluorophenyl)pyridin-2-yl)-2-hydroxy-ethyl)-3-(2-ethynylthiazol-4-yl)urea], the EC50 is no more than 200 nM.

With `C#Cc1nc(NC(=O)N[C@H](c2ccc(-c3cccc4ncsc34)cc2)C(C)O)cs1` (stereo partly drawn) [Compound A204, 1-((1R)-1-(4-(Benzo[d]thiazol-7-yl)phenyl)-2-hydroxypropyl)-3-(2-ethynyl-thiazol-4-yl)urea], the EC50 was no more than 200 nM.

`C#Cc1nc(NC(=O)N[C@@H](COC(N)=O)c2ccc(-c3cccc4cnccc34)cc2)cs1` [Compound A229, (R)-2-(3-(2-Ethynylthiazol-4-yl)ureido)-2-(4-(isoquinolin-5-yl)phenyl)ethyl carbamate]: the EC50 was no more than 200 nM.

Turning to `C#Cc1nc(NC(=O)N[C@H](c2ccc(-c3cccc4ncsc34)cc2)C(C)(C)O)cs1` [Compound A203, (R)-1-(1-(4-(Benzo[d]thiazol-7-yl)phenyl)-2-hydroxy-2-methylpropyl)-3-(2-ethynylthiazol-4-yl)urea], the EC50 was no more than 200 nM.

As to `C#Cc1nc(NC(=O)N[C@@H](CO)c2ccc(-c3c(C#N)ccc4cccnc34)cc2)cs1` [Compound A52, (R)-1-(1-(4-(7-Cyanoquinolin-8-yl)phenyl)-2-hydroxyethyl)-3-(2-ethynylthiazol-4-yl)urea], the EC50 is no more than 200 nM.

For the compound `C#Cc1nc(NC(=O)N[C@H](COC(N)=O)c2ccc(-c3ccccc3C3(C#N)CC3)cn2)cs1` [Compound A61, (S)-2-(5-(2-(1-Cyanocyclopropyl)phenyl)pyridin-2-yl)-2-(3-(2-ethynylthiazol-4-yl)ureido)ethyl carbamate], the EC50 was no more than 200 nM.

As to `C#Cc1nc(NC(=O)NCc2ccc(-c3cccc(C(=O)CC)c3)cc2)cs1` [Compound A169, 1-(2-Ethynylthiazol-4-yl)-3-((3′-propionyl-[1,1′-biphenyl]-4-yl)methyl)urea], the EC50 is no more than 200 nM.

Consider `C#Cc1nc(NC(=O)N[C@@H](CO)c2ccc(-c3cccc4ccnc(O)c34)c(Cl)c2)cs1` [Compound A107, (R)-1-(1-(3-Chloro-4-(1-hydroxyisoquinolin-8-yl)phenyl)-2-hydroxyethyl)-3-(2-ethynylthiazol-4-yl)urea], for which the EC50 was no more than 200 nM.

Source of the values: US20240101546A1, “HETEROARYL-ACETYLENES, PHARMACEUTICAL COMPOSITIONS THEREOF, AND THEIR THERAPEUTIC APPLICATIONS” (Eubulus Biotherapeutics Inc., priority 2020, published 2024).
